Here are results for three compounds from patent US12083089B2, “Compositions and methods for stimulating ventilatory and/or respiratory drive” (CASE WESTERN RESERVE UNIVERSITY, priority 2015, dated 2024).

SMILES strings stand for the structures. Entries after “also recorded” stand apart in the source; their conditions may differ.

For data set [1], the system named is freely moving rats. Put plainly: Tail-flick latency (TFL) test. The data set is classed as in vivo, rat. On the technique in general: In hot-plate and tail-flick tests a longer latency is read as antinociception.
Data set [2] relates to conscious rats. Put plainly: Morphine-induced analgesia (paw withdrawal latency assay), Example 1. The conditions noted are these: 500 μmol/kg i.v.; 10 mg/kg of morphine; FIG. 13. In kind it is in vivo, rat.
For data set [3], the system named is freely moving adult male Sprague-Dawley rats. Put plainly: Whole-body plethysmography of ventilatory parameters in morphine-treated rats. The procedure: Permissions, rats, surgical procedures and blinding of protocols. All studies were carried out in accordance with the NIH Guide for the Care and Use of Laboratory Animals (NIH Publication No. […]) revised in 1996. The protocols were approved by the Animal Care and Use Committees of the University of Virginia, Case Western Reserve University and Loma Linda University. In addition, all studies were carried out in compliance with the ARRIVE (Animal Research: Reporting of In Vivo Experiments) guidelines. Adult male Sprague-Dawley rats (Harlan, Madison, WI, USA) were implanted with jugular vein catheters under 2% isoflurane anesthesia and some rats received femoral arterial catheters. The rats were allowed at least four days to recover from surgery before use. All arterial catheters were flushed daily with heparin solution (50 units of heparin in phosphate-buffered saline at 0.1 M, pH 7.4). All catheters were flushed with phosphate-buffered saline (0.1 M, pH 7.4) approximately four hours before commencement of the experiments. All studies were performed in a quiet laboratory with relative humidity of 49±2% and room temperature of 21.4±0.2° C. […] Also, please note that the antinociception and ventilatory studies were done in separate groups of rats so as to not complicate the respiratory measurements. The recording (plethysmography, antinociception) sessions and the arterial blood gas assays were done by a particular investigator who administered the opioid, vehicle or test drug such as d-cystine diME. The syringes containing the vehicle or test drug were made up by another investigator, such that the investigator running the actual experiment was blinded to the treatment protocol. In every case, the data files resulting from a particular study were first collated and analyzed by another investigator in the group.
Ventilatory parameters were recorded in freely moving rats by whole body plethysmography (PLY3223; Data Sciences International, St. Paul, MN). The rats were placed in individual chambers and given 60 min to acclimatize to allow true resting ventilatory parameters to be established. […] The rats received another injection of vehicle or 1-NACme (500 μmol/kg, IV) 15 min later and ventilatory parameters were recorded for a further 60 min.
The provided software (Fine Pointe, BUXCO) constantly corrected digitized values for changes in chamber temperature and humidity. Pressure changes associated with the respiratory waveforms were then converted to volumes (i.e., TV, PIF and PEF) using the algorithm of Epstein and colleagues. Specifically, factoring in chamber temperature and humidity, the cycle analyzers filtered the acquired signals, and BUXCO algorithms (Fine Pointe) generated an array of box flow data that identified a waveform segment as an acceptable breath. From that data vector, the minimum and maximum values were determined. Flows at this point were considered to be “box flow” signals.
The recorded data (1 min bins) and derived parameters, Vt/Ti and Response Area (cumulative percent changes from pre-values) were taken for statistical analyses. The pre-drug 1 min bins excluded occasional marked deviations from resting due to movements or scratching by the rats. These exclusions ensured accurate determinations of baseline parameters. The data are presented as mean±SEM. All data unless other-wise stated (see immediately below) were analyzed by one-way or two-way analysis of variance followed by Student's modified t test with Bonferroni corrections for multiple comparisons between means using the error mean square terms from each ANOVA. A value of P<0.05 denoted the initial level of statistical significance that was modified according to the number of comparisons between means.

Data set [4] relates to freely moving rats. Put plainly: Hot-plate (hind-paw withdrawal) latency (HPL), Hargreaves's test, morphine 10 mg/kg. In kind it is in vivo, rat.
Data set [5] deals with adult male rats. The data set can be described thus: Von Frey Test, morphine 1 mg/kg. The data set is classed as in vivo, rat. The conditions noted are these: for force needed to initiate hind-paw withdrawal (Von Frey): FIG. 27 study.
Data set [6] has as its system conscious (adult male) C57 black 6 (C57BL6) mice. The data set can be described thus: Ventilatory responses in conscious mice. The data set is classed as in vivo, mouse.
Data set [7] has as its system rats. The data set can be described thus: Hemodynamics (preliminary toxicology). In kind it is in vivo, rat. The conditions noted are these: 500 μmol/kg, i.v. From the text: FIGS. 11(A-C) illustrate plots showing the effects of test agents (500 μmol/kg, i.v.) on hemodynamic variables. Data are presented mean±SEM (n=8 rats per group).
The subject of data set [8] is conscious male adult Sprague-Dawley rats. The data set can be described thus: Plethysmographic ventilatory responses to test compounds in conscious rats. The data set is classed as in vivo, rat.
The test system of data set [9] is adult male rats. The data set can be described thus: Hargreaves Hind-paw Latency Test, morphine 1 mg/kg. The data set is classed as in vivo, rat. The note with it: for effect on the antinociception actions of morphine (Hargreaves): 500 μmol/kg IV with morphine sulfate 1.0 mg/kg IV; for thermal nociception (Hargreaves Testing) when given alone: 500 μmol/kg IV, tested 20 to 30 min post-injection; for Hargreaves hind-paw withdrawal latency: FIG. 26 study.

Data set [10] deals with freely moving rats. The data set can be described thus: Arterial blood-gas chemistry and A-a gradient in morphine-treated rats. The data set is classed as in vivo, rat.
For data set [11], the system named is humans. The note with it: oral NAC three times daily, exposed acutely to isocapnic hypoxia; cited from earlier work.
The mark [12] stands for this setting: 500 μmol/kg IV, before morphine.
The mark [13] stands for this setting: drug 500 μmol/kg IV 20 min before morphine 10 mg/kg IV.
Where [14] appears, read: 500 μmol/kg IV in morphine (10 mg/kg IV)-treated rats, FIG. 21.
Setting [15] is: freely moving rats, morphine 10 mg/kg IV, then d-cystine diEE 500 μmol/kg IV 15 min later.

As to `CCOC(=O)[C@H](N)CSSC[C@@H](N)C(=O)OCC` [D-Cystine diEE, D-Cystine diethylester], in data set [1] (setting [12]), the “TFL after the drug alone” value is reported as “transient increase” and the “time within which the transient increase in TFL resolved” value is on record as at most 15 min. The “antinociceptive effects of morphine (TFL) in drug-pretreated rats” value in [1] (setting [13]) is listed as “enhanced”. In [2], the morphine analgesia result is reported as “does not attenuate”. In data set [3] (setting [14]), the “initial peak responses: Freq, TV, MV, PIF, PEF, EF50, inspiratory and expiratory drive” value is “pronounced increases”; the “total response: Freq” value was “relatively minor increase in Freq”; the “total response: TV, MV, PIF, PEF, PEF/PIF, EF50, inspiratory and expiratory drives” value was “robust sustained increases”. Besides, in data set [3] (bolus 500 μmol/kg i.v. (D-CYSee 2×500 μmol/kg) after morphine 10 mg/kg i.v., conscious rats, Example 1), the “ventilatory depressant effects of morphine incl. tidal volume/inspiratory time (Vt/Ti)” value was “immediate and sustained reversal”. Besides, the “duration of the brief increase in Freq” value in data set [3] (d-cystine diEE 500 μmol/kg IV, 15 min after morphine 10 mg/kg IV) was “about 5 min”. Also, in data set [3] (setting [15]), the “changes in EF50” value is “further prompt and sustained increase”; the “changes in PEF/PIF” value is reported as “decrease in PEF/PIF immediately upon injection”; the “changes in expiratory drive (TV/Te)” value was “substantial and sustained increase”; the “changes in expiratory time (Te)” value was “without greatly affecting Te”. Besides, in data set [3] (setting [15]), the “changes in frequency of breathing (Freq)” value was “brief increase in Freq of about 5 min in duration that was followed by a gradual and sustained elevation”; the “changes in inspiratory drive (TV/Ti)” value is listed as “noticeable but partial recovery”; the “changes in inspiratory time (Ti)” value is given as “brief decrease in Ti”; the “changes in minute ventilation (MV)” value is “prompt and long-lasting reversal”. For the same compound, in data set [3] (setting [15]), the “changes in peak expiratory flow (PEF)” value is “marked increase in PEF to levels well above pre-morphine levels”; the “changes in peak inspiratory flow (PIF)” value was “prompt and relatively sustained reversal”; the “changes in the ratio of Te/Ti” value was “similarly”. Also, in data set [4] (setting [12]), the “HPL after the drug alone” value is “transient increase” and the “time within which the transient increase in HPL resolved” value was at most 15 min. Besides, the “antinociceptive effects of morphine (HPL) in drug-pretreated rats” value in data set [4] (setting [13]) is recorded as “enhanced”.
On to `COC(=O)[C@H](N)CSSC[C@@H](N)C(=O)OC` [D-Cystine diME, D-Cystine dimethylester], for which the “immediate effects on Freq, TV or MV” value in data set [3] (rat, in vivo) was “minimal immediate effects”. Moreover, the “effect on the antinociception actions of morphine (Von Frey)” value in data set [5] (500 μmol/kg IV with morphine sulfate 1.0 mg/kg IV, listed as d-cystine diME) was “neither thiolester affected”. In addition, the “mechanical allodynia (Von Frey Testing) when given alone” value in data set [5] (500 μmol/kg IV, tested 20 to 30 min post-injection, listed as d-cystine diME) is listed as “neither d-cystine diME nor L-cystine diME affected”. Moreover, the “force needed to initiate hind-paw withdrawal (Von Frey)” value in [5] (Morphine+D-cystine diME) turned out to be 176±5 grams; in [5] (given alone, D-cystine diME 500 μmol/kg IV, morphine 1 mg/kg IV) it was 144±8 grams. Besides, the “duration of increases in frequency of breathing, tidal volume and minute ventilation” value in data set [6] is “approximately 20 min”; in data set [8] (500 μmol/kg, i.v.), 20 min. Moreover, the “frequency of breathing, tidal volume and minute ventilation (response)” value was “robust increases” in data set [6] (250 mol/kg dose) and “robust increases” in data set [8] (500 mol/kg, i.v.). Besides, the “hemodynamic responses (FIG. 11)” value in data set [7] is “minimal responses; also recorded: did not elicit significant responses”. Also, the “total ventilatory responses recorded over the 30 min post-injection period (% baseline), comparison of efficacy” value in data set [8] (500 μmol/kg, i.v., FIG. 2) is given as “most efficacious of the test compounds”. The “how sustained the ventilatory effect is, compared with D-CYSee and L-CYSee” value in data set [8] (500 mol/kg, i.v.) was “most sustained effect”. Besides, the “dose-dependency of ventilatory responses” value in [8] (FIG. 3) is on record as “clearly dose-dependent”. The “effect on the antinociception actions of morphine (Hargreaves)” value in data set [9] (listed as D-cystine diME) was “not different from each other”; in data set [9] (listed as d-cystine diME) it was “neither thiolester affected”. Moreover, the “thermal nociception (Hargreaves Testing) when given alone” value was “not a significant difference” in [9] and “neither d-cystine diME nor L-cystine diME affected” in [9] (listed as d-cystine diME). The “Hargreaves hind-paw withdrawal latency” value in [9] (Morphine+D-Cystine diME) is 16.9 ± 1.0 s; in data set [9] (given alone, D-cystine diME 500 μmol/kg IV, morphine sulfate 1 mg/kg IV), 12.9 ± 1.0 s. Also, the “deleterious actions of morphine on ABG chemistry and A-a gradient” value in data set [10] (bolus 500 μmol/kg i.v. after morphine 10 mg/kg i.v., Example 1) is “reversed”. Further, in data set [10] (freely moving rats, morphine 10 mg/kg IV, then drug 500 μmol/kg IV 15 min later, FIG. 18), the “changes in ABG chemistry (pH, pCO2, pO2 and sO2)” value is listed as “reversed immediately”. Further, the “changes in A-a gradient” value in data set [10] (freely moving rats, morphine 10 mg/kg IV, then drug 500 μmol/kg IV 15 min later, FIG. 19) was “reversed immediately”.
In the case of `CC(=O)N[C@@H](CS)C(=O)O` [NAC, N-acetylcysteine], the “increase in minute ventilation” value in data set [11] is 24±4%.
